Common to all, as to assay type: functional
The test system of assay [1] is Rattus norvegicus. Kind of assay: Percent inhibition ethanol induced necrotic damage of gastric mucosa in male wistar rat after dosage; Dose range 25-100 mg/kg.
Assay [2] deals with Rattus norvegicus. Kind of assay: Gastric cytoprotective effect as ulcerative index was calculated in male wistar rat after 100 mg/kg dosage.
The test system of assay [3] is Rattus norvegicus. Kind of assay: Gastric cytoprotective effect as ulcerative index was calculated in male wistar rat after 20 mg/kg dosage.
Assay [4] deals with Rattus norvegicus. Description: Percent inhibition ethanol induced necrotic damage of gastric mucosa in male wistar rat after 1 hr of contact with synthetic gastric juice; Dose range 25?100 mg/kg.
For assay [5], the system named is Rattus norvegicus. Kind of assay: Percent inhibition ethanol induced necrotic damage of gastric mucosa in male wistar rat after 2 hr of contact with synthetic gastric juice; Dose range 25?100 mg/kg.
For assay [6], the system named is Rattus norvegicus. Kind of assay: Gastric cytoprotective effect as ulcerative index was calculated in male wistar rat at 100 mg/kg dose after 1 hr of contact with synthetic gastric juice.
In assay [7] the test system is Rattus norvegicus. Kind of assay: Gastric cytoprotective effect as ulcerative index was calculated in male wistar rat at 100 mg/kg dose after 2 hr of contact with synthetic gastric juice.

Structures are written as SMILES.

`C=C1C(=O)O[C@H]2C1CCC(C)=C1C(=O)C=C(C)[C@@H]12` (some centres not stated) displayed an Inhibition of damage with Rattus norvegicus [1] of 97%. Besides, the Ulcerative index in the assay on Rattus norvegicus [2] is 0.16.
`C=C(C(=O)O)[C@@H]1CC[C@@]2(C)CCC[C@@](C)(O)C2C1` (some centres not stated) registered an Inhibition of damage with Rattus norvegicus [1] of 5%. The Ulcerative index in the assay on Rattus norvegicus [2] is given as 4.62.
In the assay on Rattus norvegicus [1], `C=C(C=O)[C@@H]1CC[C@@]2(C)CCCC(C)=C2C1` yielded an Inhibition of damage of 5%. In addition, the Ulcerative index with Rattus norvegicus [2] is 4.62.
On to `COc1ccc2[nH]c([S+]([O-])Cc3ncc(C)c(OC)c3C)nc2c1` (configuration not stated) [OMEPRAZOLE], for which the Ulcerative index in the assay with Rattus norvegicus [3] was 3. Besides, the Inhibition of damage in the assay with Rattus norvegicus [1] worked out at 38%.
For `C=C1CCC[C@]2(C)CC[C@@H](C(=C)C=O)CC12` (some centres not stated), the Inhibition of damage in the assay on Rattus norvegicus [1] turned out to be 23%. The Ulcerative index in the assay on Rattus norvegicus [2] is on record as 3.75.
Consider `C=C1C(=O)O[C@]23C[C@H]1CC[C@@]2(C)CCC[C@H]3C`, for which the Inhibition of damage in the assay with Rattus norvegicus [1] is recorded as 48%. In addition, the Ulcerative index in the assay with Rattus norvegicus [2] is listed as 2.5.
`C=C1C(=O)O[C@]23C[C@H]1CC[C@@]2(C)CCCC3=C` had an Inhibition of damage with Rattus norvegicus [1] of 30%. Further, in the assay with Rattus norvegicus [2], the Ulcerative index is 3.37.
In the assay with Rattus norvegicus [1], `C=C(C=O)[C@@H]1CC[C@@]2(C)CCC[C@@](C)(O[Si](C)(C)C)C2C1` (some centres not stated) came in with an Inhibition of damage of 48%. Moreover, the Ulcerative index with Rattus norvegicus [2] is recorded as 2.5.
The corresponding values for `C=C(CO)[C@@H]1CC[C@@]2(C)CCC[C@@](C)(O)C2C1` (some centres not stated) are 1% and 4.8.
For `C=C(C=O)[C@@H]1CC[C@@]2(C)CCC[C@@](C)(OC(=O)C(F)(F)F)C2C1` (some centres not stated), the Inhibition of damage turned out to be 86% with Rattus norvegicus [4] and 96% in the assay on Rattus norvegicus [5]. In addition, the Ulcerative index with Rattus norvegicus [6] was 0.66; in the assay on Rattus norvegicus [7] it was 0.16.
`C=C(C(=O)O)[C@@H]1CCC2=CC(=O)C[C@H](C)[C@@]2(C)C1` [TESSARIC ACID] registered an Inhibition of damage in the assay with Rattus norvegicus [1] of 5%. The Ulcerative index in the assay with Rattus norvegicus [2] is recorded as 4.62.
With `C=C(C(=O)O)[C@@H]1CCC2=CC=C[C@H](C)[C@@]2(C)C1`, in the assay on Rattus norvegicus [3], the Ulcerative index is 3.7. This molecule had an Inhibition of damage in the assay with Rattus norvegicus [1] of 23%.
In turn, `C=C(C=O)[C@@H]1CC[C@@]2(C)CCC[C@@](C)(O)C2C1` (some centres not stated) came in with an Inhibition of damage in the assay with Rattus norvegicus [1] of 96%. For the same molecule, the Ulcerative index with Rattus norvegicus [2] is 0.2.
Turning to `C=C(C(=O)O)[C@@H]1CC[C@@]2(C)CCCC(C)=C2C1`, the Inhibition of damage in the assay with Rattus norvegicus [1] worked out at 17%. The Ulcerative index in the assay on Rattus norvegicus [2] is recorded as 4.
For the molecule `C=C(C(=O)OC)[C@@H]1CCC2=CC(=O)C[C@H](C)[C@@]2(C)C1` [TESSARIC ACID METHYL ESTER], the Inhibition of damage in the assay with Rattus norvegicus [1] is given as 5%. Also, the Ulcerative index in the assay with Rattus norvegicus [2] was 4.62.

These data come from ChEMBL document CHEMBL1142750, “Gastric cytoprotective activity of ilicic aldehyde: structure-activity relationships” (2005).
